The numbers were not newly measured in article PMC9411704, “Assessment of the Carcinogenic Potential of Pretomanid in Transgenic Tg.rasH2 Mice” (International Journal of Toxicology, 2022), which cites them from elsewhere.

Details of this data set: method as in PMID 32130813. Particulars: 200 mg/day, clinical study NCT02333799; cited from earlier work.

`O=[N+]([O-])c1cn2c(n1)OC[C@@H](OCc1ccc(OC(F)(F)F)cc1)C2` [Pretomanid, (6S)-2-nitro-6-{[4-(trifluoromethoxy)benzyl]oxy}-6,7-dihydro-5H-imidazo[2,1-b][1,3]oxazine]: the “Human AUC0-24” value was 50900 ng·h/mL.
